Measured values from article PMC8480901 (PLoS ONE, 2021).
“And” between values parts separate entries of the source, which are not always exact repeats. Equal entries are not always repeated.

Tests used:
[1] = cited from earlier work
[2] = tested on: TNF-α, IL-6, IL-1β, GM-CSF, CXCL-1, CXCL-2, CCL-2 and MMP-9 in lung tissue; test: LPS-induced cytokines, chemokines and MMP-9 in mouse lung homogenates (Luminex, ELISA); conditions: for CCL2 % reduction / CXCL1 % reduction / CXCL2 % reduction / GM-CSF % reduction / IL-1β % reduction / IL-6 % reduction / MMP9 % reduction / TNFα % reduction / CCL2 / CXCL1 / CXCL2 / GM-CSF / IL-1β / IL-6 / MMP9 / TNFα / CCL2 Mean / CXCL1, Mean / CXCL2, Mean / GM-CSF Mean / IL-1β Mean / IL-6 Mean / MMP9, Mean / TNFα Mean: lung homogenate, LPS; for CCL2 / CXCL1 / CXCL2 / GM-CSF / IL-1β / IL-6 / MMP9 / TNFα: individual animal, listed as Azi; for CCL2 Mean / CXCL1, Mean / CXCL2, Mean / GM-CSF Mean / IL-1β Mean / IL-6 Mean / MMP9, Mean / TNFα Mean: mean of 8
Method: To induce pulmonary neutrophilia, mice in the control group received intranasal (IN) 50 μL saline, and all other animals received 5 μg LPS/50 μL saline IN per mouse.
After bronchoalveolar lavage, lungs were removed, weighed, snap frozen, and stored at −80°C until analysis. To homogenize the tissue, the frozen lungs were thawed and placed in Precellys CK28 Hard Tissue tubes (BERTIN Instruments, Montigny-le-Bretonneux, France) in 1 mL PBS (Gibco, Life Technologies, Paisley, UK) supplemented with protease inhibitors (Halt™ Protease Inhibitor Cocktail [100×]; Thermo Fisher Scientific, Rockford, IL, USA). A Precellys homogenizer (BERTIN Instruments) was used, shaking at 6800 rpm for three 30-second pulses separated by 15-second pauses. After homogenization, samples were centrifuged at 18,000×g for 10 minutes at 4°C, and the supernatants were collected for analysis.
Concentrations of tumor necrosis factor (TNF)-α, IL-6, granulocyte-macrophage colony-stimulating factor (GM-CSF), chemokine (C-X-C motif) ligand (CXCL)-1, CXCL-2, and chemokine (C-C motif) ligand (CCL)-2 in mouse lung homogenates were analyzed with the Mouse Premixed Multi-Analyte Kit (R&D Systems, Minneapolis, MN, USA) per the manufacturer’s protocol and using a Luminex 200 System (Luminex Corporation, Austin, TX, USA). Cytokine and chemokine concentrations were determined from blank-corrected median fluorescence intensity of each sample via xPONENT® software (Luminex Corporation), interpolating from standard curves generated with a 5-parameter logistic curve-fit.
Mouse Total MMP (matrix metalloprotease)-9 and IL-1β/IL-1F2 DuoSet ELISA (enzyme-linked immunosorbent assay) kits (R&D Systems) were used to measure concentrations of MMP-9 and IL-1β, respectively, in lung homogenates per the manufacturer’s protocols. Absorbance at 450 nm was measured using the SpectraMax i3 (Molecular Devices, San Jose, CA, USA). Concentrations of MMP-9 and IL-1β in samples were determined by interpolation from standard curves.
Differences between treated versus vehicle groups were determined using the Mann-Whitney test and were considered statistically significant when P<0.05. Outliers in the analysis of cytokine and chemokine concentrations were identified using the Grubbs test. No criteria were set for inclusion/exclusion of animals during the experiment or data points during the analysis.

[3] = all doses (10, 30, 100 mg/kg SC)

SMILES: CC[C@H]1OC(=O)[C@H](C)[C@@H](O[C@H]2C[C@@](C)(OC)[C@@H](O)[C@H](C)O2)[C@H](C)[C@@H](O[C@@H]2O[C@H](C)C[C@H](N(C)C)[C@H]2O)[C@](C)(O)C[C@@H](C)CN(C)[C@H](C)[C@@H](O)[C@]1(C)O [Azithromycin]
- increase in AUC, first to fifth daily dose ([1]; 500 mg IV daily): 61%
- increase in maximum observed plasma concentration, first to fifth daily dose ([1]; 500 mg IV daily): 8%
- plasma exposure (AUC) ([1]; 500-mg IV 3-hour infusion, healthy volunteers): 5.0 µg·h/mL
- TNF-α concentrations in lung homogenate ([2]; 100 mg/kg SC): no significant effect
- TNF-α concentrations in lung homogenate ([2]; 10 and 30 mg/kg SC): significant reductions
- IL-1β concentrations in lung homogenate [2, 3]: reduced
- MMP-9 levels in lung homogenate [2, 3]: not as pronounced as with lefamulin
- chemokines and GM-CSF in lung homogenate [2, 3]: significant but not as pronounced
- IL-6 concentrations in lung homogenate ([2]; all doses tested (10, 30, 100 mg/kg SC), vs vehicle control): reduced to a lesser extent
- IL-1β concentrations in lung homogenate ([2]; lowest dose (10 mg/kg SC)): significant reduction
- CCL2 % reduction ([2]; 10 mg/kg): 36%
- CXCL1 % reduction ([2]; 10 mg/kg): 44%
- CXCL2 % reduction ([2]; 10 mg/kg): 41%
- GM-CSF % reduction ([2]; 10 mg/kg): 44%
- IL-1β % reduction ([2]; 10 mg/kg): 13%
- IL-6 % reduction ([2]; 10 mg/kg): 51%
- MMP9 % reduction ([2]; 10 mg/kg): 16%
- TNFα % reduction ([2]; 10 mg/kg): 61%
- CCL2 ([2]; 10 mg/kg): 4556.27 pg/mL and 3263.22 pg/mL and 1456.64 pg/mL and 3309.90 pg/mL and 1430.47 pg/mL and 5875.00 pg/mL and 1417.32 pg/mL and 3315.08 pg/mL
- CXCL1 ([2]; 10 mg/kg): 8286.02 pg/mL and 7278.90 pg/mL and 5769.98 pg/mL and 6100.99 pg/mL and 6284.84 pg/mL and 12400.64 pg/mL and 5305.93 pg/mL and 5666.95 pg/mL
- CXCL2 ([2]; 10 mg/kg): 7643.01 pg/mL and 7085.07 pg/mL and 4631.04 pg/mL and 5712.04 pg/mL and 6677.58 pg/mL and 11079.57 pg/mL and 4412.48 pg/mL and 8631.64 pg/mL
- GM-CSF ([2]; 10 mg/kg): 139.66 pg/mL and 134.35 pg/mL and 75.54 pg/mL and 114.95 pg/mL and 86.88 pg/mL and 293.40 pg/mL and 92.13 pg/mL and 119.35 pg/mL
- IL-1β ([2]; 10 mg/kg): 8824 pg/mL and 7408 pg/mL and 8108 pg/mL and 9841 pg/mL and 7312 pg/mL and 9969 pg/mL and 10254 pg/mL and 14453 pg/mL
- IL-6 ([2]; 10 mg/kg): 703.95 pg/mL and 429.86 pg/mL and 475.85 pg/mL and 521.70 pg/mL and 613.04 pg/mL and 952.23 pg/mL and 337.40 pg/mL and 749.27 pg/mL
- MMP9 ([2]; 10 mg/kg): 2413 pg/mL and 1880 pg/mL and 2467 pg/mL and 2045 pg/mL and 2015 pg/mL and 1705 pg/mL and 1966 pg/mL
- TNFα ([2]; 10 mg/kg): 468.82 pg/mL and 365.25 pg/mL and 396.22 pg/mL and 281.21 pg/mL and 385.93 pg/mL and 406.49 pg/mL and 646.25 pg/mL and 400.08 pg/mL
- CCL2 Mean ([2]; 10 mg/kg): 3078 pg/mL
- CXCL1, Mean ([2]; 10 mg/kg): 7137 pg/mL
- CXCL2, Mean ([2]; 10 mg/kg): 6984 pg/mL
- GM-CSF Mean ([2]; 10 mg/kg): 132 pg/mL
- IL-1β Mean ([2]; 10 mg/kg): 9521 pg/mL
- IL-6 Mean ([2]; 10 mg/kg): 598 pg/mL
- MMP9, Mean ([2]; 10 mg/kg): 2113 pg/mL
- TNFα Mean ([2]; 10 mg/kg): 419 pg/mL
- CCL2 % reduction ([2]; 30 mg/kg): 89%
- CXCL1 % reduction ([2]; 30 mg/kg): 62%
- CXCL2 % reduction ([2]; 30 mg/kg): 66%
- GM-CSF % reduction ([2]; 30 mg/kg): 77%
- IL-1β % reduction ([2]; 30 mg/kg): 12%
- IL-6 % reduction ([2]; 30 mg/kg): 89%
- MMP9 % reduction ([2]; 30 mg/kg): 27%
- TNFα % reduction ([2]; 30 mg/kg): 77%
- CCL2 ([2]; 30 mg/kg): 1476.16 pg/mL and 999.58 pg/mL and 556.20 pg/mL and 527.89 pg/mL and 1875.36 pg/mL and 690.08 pg/mL and 698.62 pg/mL and 781.98 pg/mL
- CXCL1 ([2]; 30 mg/kg): 6439.29 pg/mL and 6623.20 pg/mL and 4431.51 pg/mL and 4192.30 pg/mL and 6910.31 pg/mL and 3755.15 pg/mL and 2835.10 pg/mL and 5401.78 pg/mL
- CXCL2 ([2]; 30 mg/kg): 7207.48 pg/mL and 4769.86 pg/mL and 3209.88 pg/mL and 2485.22 pg/mL and 5075.82 pg/mL and 2214.38 pg/mL and 1941.44 pg/mL and 6143.97 pg/mL
- GM-CSF ([2]; 30 mg/kg): 74.67 pg/mL and 53.86 pg/mL and 46.96 pg/mL and 43.52 pg/mL and 113.19 pg/mL and 45.24 pg/mL and 48.68 pg/mL and 57.31 pg/mL
- IL-1β ([2]; 30 mg/kg): 7544 pg/mL and 10213 pg/mL and 8353 pg/mL and 7459 pg/mL and 10985 pg/mL and 8847 pg/mL and 13576 pg/mL and 10376 pg/mL
- IL-6 ([2]; 30 mg/kg): 510.25 pg/mL and 452.87 pg/mL and 220.67 pg/mL and 149.74 pg/mL and 314.17 pg/mL and 173.48 pg/mL and 475.85 pg/mL
- MMP9 ([2]; 30 mg/kg): 1204 pg/mL and 2421 pg/mL and 1943 pg/mL and 1913 pg/mL and 2288 pg/mL and 1939 pg/mL and 1874 pg/mL and 1816 pg/mL
- TNFα ([2]; 30 mg/kg): 463.76 pg/mL and 597.19 pg/mL and 177.73 pg/mL and 146.70 pg/mL and 109.09 pg/mL and 202.71 pg/mL and 129.48 pg/mL
- CCL2 Mean ([2]; 30 mg/kg): 951 pg/mL
- CXCL1, Mean ([2]; 30 mg/kg): 5074 pg/mL
- CXCL2, Mean ([2]; 30 mg/kg): 4131 pg/mL
- GM-CSF Mean ([2]; 30 mg/kg): 60 pg/mL
- IL-1β Mean ([2]; 30 mg/kg): 9669 pg/mL
- IL-6 Mean ([2]; 30 mg/kg): 306 pg/mL
- MMP9, Mean ([2]; 30 mg/kg): 1925 pg/mL
- TNFα Mean ([2]; 30 mg/kg): 245 pg/mL
- CCL2 % reduction ([2]; 100 mg/kg): 80%
- CXCL1 % reduction ([2]; 100 mg/kg): 24%
- CXCL2 % reduction ([2]; 100 mg/kg): 11%
- GM-CSF % reduction ([2]; 100 mg/kg): 67%
- IL-1β % reduction ([2]; 100 mg/kg): 12%
- IL-6 % reduction ([2]; 100 mg/kg): 8%
- MMP9 % reduction ([2]; 100 mg/kg): 24%
- TNFα % reduction ([2]; 100 mg/kg): 36%
- CCL2 ([2]; 100 mg/kg): 3799.67 pg/mL and 664.18 pg/mL and 1172.90 pg/mL and 962.12 pg/mL and 765.59 pg/mL and 1437.03 pg/mL and 877.71 pg/mL and 698.62 pg/mL
- CXCL1 ([2]; 100 mg/kg): 20237.00 pg/mL and 6969.24 pg/mL and 8733.13 pg/mL and 8755.54 pg/mL and 6380.45 pg/mL and 8935.00 pg/mL and 8591.33 pg/mL and 8085.43 pg/mL
- CXCL2 ([2]; 100 mg/kg): 18077.64 pg/mL and 6817.72 pg/mL and 11394.66 pg/mL and 9108.54 pg/mL and 6682.24 pg/mL and 11221.65 pg/mL and 9678.57 pg/mL and 10364.59 pg/mL
- GM-CSF ([2]; 100 mg/kg): 162.70 pg/mL and 67.71 pg/mL and 85.13 pg/mL and 72.93 pg/mL and 64.24 pg/mL and 90.38 pg/mL and 45.24 pg/mL
- IL-1β ([2]; 100 mg/kg): 6686 pg/mL and 8985 pg/mL and 9690 pg/mL and 9020 pg/mL and 8022 pg/mL and 10797 pg/mL and 10826 pg/mL and 12960 pg/mL
- IL-6 ([2]; 100 mg/kg): 2378.14 pg/mL and 464.36 pg/mL and 635.80 pg/mL and 669.91 pg/mL and 567.42 pg/mL and 703.95 pg/mL and 884.75 pg/mL and 1176.18 pg/mL
- MMP9 ([2]; 100 mg/kg): 1836 pg/mL and 1554 pg/mL and 2200 pg/mL and 2220 pg/mL and 2073 pg/mL and 2366 pg/mL and 1528 pg/mL and 2063 pg/mL
- TNFα ([2]; 100 mg/kg): 660.88 pg/mL and 1126.83 pg/mL and 249.05 pg/mL and 935.87 pg/mL and 855.56 pg/mL and 270.54 pg/mL and 656.01 pg/mL and 675.49 pg/mL
- CCL2 Mean ([2]; 100 mg/kg): 1297 pg/mL
- CXCL1, Mean ([2]; 100 mg/kg): 9586 pg/mL
- CXCL2, Mean ([2]; 100 mg/kg): 10418 pg/mL
- GM-CSF Mean ([2]; 100 mg/kg): 83 pg/mL
- IL-1β Mean ([2]; 100 mg/kg): 9623 pg/mL
- IL-6 Mean ([2]; 100 mg/kg): 935 pg/mL
- MMP9, Mean ([2]; 100 mg/kg): 1980 pg/mL
- TNFα Mean ([2]; 100 mg/kg): 679 pg/mL
